# Assay results as given in patent US10035780B2, “Quinazoline scaffold based compounds, pharmaceutical compositions and methods of use thereof” (TECHNION RESEARCH & DEVELOPMENT FOUNDATION LTD., priority 2014, dated 2018).
# Entries after “also recorded” stand apart in the source; their conditions may differ. Read-outs that look alike come from different tables or passages of the source.
# Columns and labels:
# TSPO = TSPO (Homo sapiens (Human), UniProt P30536); type: binding
# Description: Briefly, the assay utilizes radioactive standard ligand [^3H] PK 11195 (1-(2-chlorophenyl)-N-methyl-N-(1-methyl-propyl)-3 isoquinolinecarboxamide), and measures the ability of the compounds of the invention to displace standard ligand in binding to TSPO. Total radioactive binding was determined by measuring the radioactivity of the radioactive ligand-receptor complex, obtained in the reaction of radioactive standard with the TSPO. Radioactive standard and the examined compound were added to the TSPO and after some incubation time the radioactivity of the resulting ligand-receptor complexes was measured with the help of a […]. This radioactivity indicates the binding of the radioactive standard to TSPO. […] This can be expressed as the half maximal inhibitory concentration (IC50), which is a measure of the effectiveness of a compound in inhibiting biological or biochemical function, in this case inhibiting binding of standard radioactive ligand binding to the TSPO. A derivative of the IC50 is the Ki, which is the calculated binding affinity of the novel compound to the TSPO.
# Binding to TSPO was evaluated using a [^3H]PK 11195 radio-assay, as described above.
# U118MG cells [1] = test: Protection against cell death induced by glutamate in U118MG cell culture; type: cell-based, human; conditions: for protection against cell death induced by glutamate: U118MG cells, 35 mM glutamate, compound 1-100 μM; for Protection against glutamate-induced cell death: cell culture, grade in words; for lethal effects of compound at high concentration: 100 μM compound alone; for lethal effects of compound at high concentration / cell death effect of glutamate at high compound concentration: halogenated vs unhalogenated analog; for cell death effect of glutamate at high compound concentration: glutamate plus 100 μM compound
# Description: Cell cultures of various human glial type cell lines (T98G, U87MG, A172, U118MG), as well as human neuronal type cell lines SH-SY 5Y and Be(2)-C were used to test the new compounds. In addition, the rat glioma cell line C6 was used. PC12 cells originating from rats were used as another cell line displaying neuronal characteristics. The applicants also have produced, by genetic manipulation, a modified rat C6 glial cell strain and a modified human U118MG glial type cell strain, both under-expressing the TSPO, which allows to study TSPO specific effects, including of the compounds of the invention, which can be done according to methods described previously (Weisinger et al. Biochemistry. 2004; 43:12315-21; Levin et al. 2005; Zeno et al., 2009).
# The protective capabilities of the compounds of the invention and involvement of the TSPO were tested in cell culture, using cell lines of glial and neuronal type, cultured and testing according to standard methods (Kugler et al. 2008; Zeno et al. 2009; Dadon-Nachum et al. Stem Cell Rev. 2011; 7:664-71). Furthermore, primary cell cultures are also used (Banker, G. et al. Culturing Nerve Cells, 2nd Edition, The MIT Press (1998). Treatments included: (1) exposure to glutamate (35 mM), Abeta(1-42), NH4Cl, CoCl2, and nitric oxide (NO) donors, in order to mimic particular aspects of neurodegeneration; (2) treatment with the novel compounds and with traditional TSPO ligands as comparative treatment; and (3) TSPO knockdown by genetic manipulation.
# (§1) Techniques and parameters assayed are summarized here: Total protein levels (Bradford. Anal Biochem. 1976; 72:248-54); TSPO ligand binding assays (Kugler et al. 2008; Levin et al. 2005; Danovich et al. Eur Neuropsychopharmacol. 2008; 18:24-33) cell death, including apoptosis and necrosis and related molecular biological processes (Soustiel et al. Neuropathol Appl Neurobiol. 2008; 34:412-23; Soustiel et al. Exp Neurol. 2008; 214:201-8; Zeno et al. 2009); mitochondrial transmembrane potential collapse (Chelli et al. Biochem Pharmacol. 2004; 68:125-34; Kugler et al. 2008; Zeno et al., 2009; Shargorodsky et al. Apoptosis. 2012; 17:647-65), reactive oxygen species (ROS) generation as a measure of oxidative stress (Veenman et al. 2008; Zeno et al. 2009); TSPO knockdown (Levin et al. 2005; Zeno et al. 2009); expression levels of mitochondrial TSPO and associated proteins (Veenman et al. 2002; Levin et al. 2005; Veenman et al. 2008); gene expression with RT-PCR and microarray analysis (Bode et al. 2012; Veenman et al. 2012). Parameters of inflammation, immune response, migration, and the cell cycle are also tested. All these approaches can also be applied for quality control of the compounds.
# The compounds of the invention protect against cell death induced by glutamate in cell culture of U118MG cells of astrocytic origin (FIGS. 1, 2, 3 and 8) or SH SY 6Y cells of neuronal origin (FIG. 4). […] In the control group, 35 mM of glutamate killed ˜60% of the cells.
# The experimental setup is explained using FIG. 8B as an example: • 1. Control: Cell death levels are taken as 0% • 2. Glu: Cell death levels induced by glutamate are over 50% • 3. […] Glu+Cpd 5: When Cpd 5 is given as a treatment to counteract cell death induced by glutamate, increasing concentrations of Cpd 5 reduce cell death levels from over 50% to less than 5%.
# R6-2 mice [2] = test: Lifespan of R6-2 mice, transgenic model for Huntington Disease; type: in vivo, mouse; conditions: for effect on lifespan: daily s.c. injections 5 days a week from week 5, vs DMSO and saline
# From the text: For the assays described herein systemic injections of kainic in rats were applied and also contusion (Veenman et al. 2002; Soustiel et al. Neuropathol Appl Neurobiol. 2008; Soustiel et al. Exp Neurol. 2008). These models present very well defined cell death in the brain. Cell death in the brain is the major pathological characteristic of progressing neurodegeneration common to brain diseases. As the compounds of the present invention are designed to prevent cell death in the brain as a consequence of disease and progressing brain damage after injury, including behavioral impairments, animal models displaying cell death in the brain are the models of choice for displaying the protective capabilities of the compounds of the invention. For these reasons the R6-2 model for Huntington Disease was chosen to test the effectiveness of Compound 1 and to compare the effectiveness of Compound 1 with those of the compound of U.S. Pat. No. 8,541,428 (Cpd A) and with the classical TSPO ligand PK 11195, as well as other compounds disclosed herein. Compounds 5 and 6 were also tested in the same R6-2 model.
# R6-2 is a transgenic mouse model for Huntington Disease. Huntington Disease in humans is a hereditary neurodegenerative disease affecting motor performance and finally leading to death of the patients having the disease. R6-2 mice (˜120 CAG repeats B6CBA-Tg(HDexon1)62 Gpb/3J) mice were used for the experiments described below. For this purpose, mice obtained from the Jackson Laboratory (ME) were bred. In particular: males genotype: Hemizygous for Tg(HDexon1)62 Gpb, and females from the wildtype background strain B6CBAF1/J were bred according to the protocol of Jackson Laboratory. The male heterozygote offspring (R6-2 mice) were used for determining life span and motor activity, with and without drug treatment. Drug treatment consisted of daily (5 continuous days a week) subcutaneous injections of mice with 20 μl of: saline (sham control), vehicle DMSO (vehicle control), classic TSPO ligand PK 11195 (15 mg/kg), prior art Compound A (15 mg/kg), Compound 1 (15 mg/kg), and compound 1 (7.5 mg/kg). Drug treatment started on week 5 after birth. Quantities were used according to previous studies regarding TSPO ligands.
# (§2) Apart from the behavioral experiments, mice were observed daily, and the day of death was noted. Behavioral experiments included distance covered in an open field apparatus, and tremor measurements.
# R6-2 mice were used as previously described in Example 5. In one experiment, treatment consisted of daily (5 continuous days per week) subcutaneous injections of mice with 20 μl of vehicle DMSO (control, n=10) and Compound 6 (7.5 mg/kg, n=12). In a separate experiment, compound 5 (7.5 mg/kg, n=5) was tested, compared to DMSO control (n=5).
# R6-2 mice [3] = test: Incidence of tremor in R6-2 mice; type: in vivo, mouse
# From the text: as §2
# To assay incidence of tremor in R6-2 mice of the experiments for this invention, the StartleMonitor of Kinder Scientific (Poway, Calif.), with specific software to assay and present force pressure changes in newtons, was used.
# U118MG cells [4] = test: Collapse of the mitochondrial membrane potential (ΔΨm) induced by glutamate; type: cell-based, human; conditions: glutamate exposed cells
# From the text: as §1
# Compound 1 is very effective at a concentration of 25 μM in this model (in order to achieve the same effect with the classical TSPO ligand PK 11195 a concentration of 50 μM has to be applied (data not shown).
# [5] = displacement of [3H]PK 11195 from TSPO
# [6] = binding affinity to the TSPO, unit given as nm
# TSPO, sequence (P30536 whole entry): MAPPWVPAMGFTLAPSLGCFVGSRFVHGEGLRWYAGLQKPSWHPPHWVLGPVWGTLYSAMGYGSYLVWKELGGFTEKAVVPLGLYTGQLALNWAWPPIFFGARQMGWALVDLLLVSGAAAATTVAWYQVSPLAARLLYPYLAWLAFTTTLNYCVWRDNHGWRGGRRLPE
Compound,Ki (TSPO; [5]) [nM],protection against cell death induced by glutamate (U118MG cells [1]),Protection against glutamate-induced cell death (U118MG cells [1]),effect on lifespan (R6-2 mice [2]),other results
"CCN(CC)C(=O)Oc1nc(-c2ccc(F)c(Cl)c2)nc2ccccc12 [Compound 2, 2-(3-chloro-4-fluorophenyl)quinazolin-4-yl diethylcarbamate]",~380,strong protective properties,Good,,protection against cell death induced by glutamate (U118MG cells [1]; listed as compound 2): protective properties
"CCN(CC)C(=O)Oc1nc(-c2c(Cl)cccc2Cl)nc2ccccc12 [Compound 3, 2-(2,6-dichlorophenyl)quinazolin-4-yl diethylcarbamate]",~1510,good protective properties,Good,,protection against cell death induced by glutamate (U118MG cells [1]; listed as compound 3): protective properties
"CN(C)C(=O)Oc1nc(-c2ccccc2Cl)nc2ccccc12 [Compound 5, 2-(2-chlorophenyl)quinazolin-4-yl dimethylcarbamate]",~600,protect better and more consistently; also recorded: superior over the rest of the compounds,Excellent,increase the average lifespan; also recorded: extends the life span,"mice living up to 18 weeks (R6-2 mice [2]; 7.5 mg/kg s.c.): 20%; mice still alive at 11th week (R6-2 mice [2]; 7.5 mg/kg s.c., >50% of DMSO mice dead): 100%; mice still alive at 12 weeks (R6-2 mice [2]; 7.5 mg/kg s.c., all DMSO mice dead): 50%; effect on lifespan (R6-2 mice [2]; listed as compound 5): robust lifespan enhancing; lethal effects of compound at high concentration (U118MG cells [1]): reduces lethal effects; also recorded: reduces cell death effects; also recorded: least adverse side effects; protection against cell death induced by glutamate (U118MG cells [1]; listed as Cpd 5): improves protection; cell death levels induced by compound by itself (U118MG cells [1]; compound alone, no glutamate): ≤ 5%; cell death effect of glutamate at high compound concentration (U118MG cells [1]): reduces cell death effect of glutamate in cultures even further; cell death levels, Glu + compound (U118MG cells [1]; glutamate plus increasing concentrations of compound, glutamate alone over 50%): less than 5%; incidence of tremor activity (R6-2 mice [3]): tremor reducing effects; also recorded: reduced the incidence of tremor activity"
"CCN(CC)C(=O)Oc1nc(-c2ccccc2)nc2ccccc12 [Compound 7, 2-phenylquinazolin-4-yl diethylcarbamate]",~2.5,,Good,,Ki (TSPO; [6]): ~2.5 nM
"CCN(CC)C(=O)Oc1nc(-c2ccccc2Cl)nc2ccccc12 [Compound 8, 2-(2-chlorophenyl)quinazolin-4-yl diethylcarbamate]",~2.5,improves protection,Good,,lethal effects of compound at high concentration (U118MG cells [1]): reduces lethal effects; lethal effects of compound at high concentration (U118MG cells [1]; listed as Cpd 8): reduces cell death effects; cell death effect of glutamate at high compound concentration (U118MG cells [1]): reduces cell death effect of glutamate in cultures even further
"CN(C)C(=O)Oc1nc(-c2ccccc2)nc2ccccc12 [Compound A, reference compound]",~600,significantly less efficacious,Good,indistinguishable from vehicle treated mice; also recorded: had no such effects; also recorded: has no effect,Ki (TSPO; [6]): ~600 nM
"CCC(C)N(C)C(=O)c1cc2ccccc2c(-c2ccccc2Cl)n1 (centres unmarked) [PK 11195, 1-(2-chlorophenyl)-N-methyl-N-(1-methyl-propyl)-3 isoquinolinecarboxamide, reference compound]",,,,indistinguishable from vehicle; also recorded: had no such effects; also recorded: has no effect at all,concentration very effective in preventing ΔΨm collapse (U118MG cells [4]): 50 µM
